Where “and” joins values, the source holds several entries; their conditions need not be identical. Equal values may be shown once. Toxic doses and inconclusive results are not listed. No stated cut-off is given here; in the data, active means T/C of 150% or more; inactive means T/C below 125%.
System: L1210 leukemia ip in BDF1 mice, survival T/C
Assay: NCI In Vivo Anticancer Drug Screen. Data for tumor model L1210 Leukemia (intraperitoneal) in B6D2F1 (BDF1) mice
Conditions: endpoint: mean survival time, higher = longer survival
How it was run: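 Transplantable tumor model; survival measured in treated vs vehicle control mice. Value = treated/control.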

[1] = dose: 50.0 mg/kg/injection, schedule: Q01DX001 (ip), vehicle: saline
[2] = dose: 100.0 mg/kg/injection, schedule: Q01DX001 (ip), vehicle: saline
[3] = dose: 200.0 mg/kg/injection, schedule: Q01DX001 (ip), vehicle: saline
[4] = dose: 400.0 mg/kg/injection, schedule: Q01DX001 (ip), vehicle: saline
[5] = dose: 100.0 mg/kg/injection, schedule: Q04DX003 (ip), vehicle: Klucel (hydroxypropylcellulose) (HPC)
[6] = dose: 200.0 mg/kg/injection, schedule: Q04DX003 (ip), vehicle: Klucel (hydroxypropylcellulose) (HPC)
[7] = dose: 400.0 mg/kg/injection, schedule: Q04DX003 (ip), vehicle: Klucel (hydroxypropylcellulose) (HPC)
[8] = dose: 25.0 mg/kg/injection, schedule: Q01DX009 (ip), vehicle: saline with Tween-80
[9] = dose: 50.0 mg/kg/injection, schedule: Q01DX009 (ip), vehicle: saline with Tween-80
[10] = dose: 100.0 mg/kg/injection, schedule: Q01DX009 (ip), vehicle: saline with Tween-80
[11] = dose: 200.0 mg/kg/injection, schedule: Q01DX009 (ip), vehicle: saline with Tween-80
[12] = dose: 400.0 mg/kg/injection, schedule: Q01DX009 (ip), vehicle: saline with Tween-80
[13] = dose: 100.0 mg/kg/injection, schedule: Q04DX002 (ip), vehicle: saline with Tween-80
[14] = dose: 200.0 mg/kg/injection, schedule: Q04DX002 (ip), vehicle: saline with Tween-80
[15] = dose: 400.0 mg/kg/injection, schedule: Q04DX002 (ip), vehicle: saline with Tween-80
[16] = dose: 25.0 mg/kg/injection, schedule: Q04DX003 (ip), vehicle: saline
[17] = dose: 10.0 mg/kg/injection, schedule: Q01DX001 (ip), vehicle: saline
[18] = dose: 20.0 mg/kg/injection, schedule: Q01DX001 (ip), vehicle: saline

Measured: T/C

CNC(=O)Oc1c([N+](=O)[O-])cc([N+](=O)[O-])c2ccccc12
inactive: dose: 75.0 mg/kg/injection, schedule: Q01DX001 (ip), vehicle: other 111 % of control | dose: 150.0 mg/kg/injection, schedule: Q01DX001 (ip), vehicle: other 102 % of control

CC(NP1(=O)OCC(C)(N=Cc2ccccc2)CO1)c1ccccc1 (centres undefined)
inactive: [1] 104 % of control | [2] 98 % of control | [3] 104 % of control | [4] 95 % of control

CCCCNC(=S)C(CC)CCCC (centres undefined)
inactive: dose: 100.0 mg/kg/injection, schedule: Q04DX002 (sc), vehicle: olive oil, sesame oil, peanut oil 99 % of control | dose: 200.0 mg/kg/injection, schedule: Q04DX002 (sc), vehicle: olive oil, sesame oil, peanut oil 99 % of control | dose: 400.0 mg/kg/injection, schedule: Q04DX002 (sc), vehicle: olive oil, sesame oil, peanut oil 99 % of control

Cc1ccc(S(=O)(=O)N(CC(=O)O)c2cccc(Cl)c2)cc1
inactive: [5] 91 % of control | [6] 96 % of control | [7] 100 % of control

NC(=O)C1C(c2ccccc2)C1c1ccccc1 (centres undefined)
inactive: dose: 100.0 mg/kg/injection, schedule: Q04DX002 (ip), vehicle: Klucel (hydroxypropylcellulose) (HPC) 97 % of control | dose: 200.0 mg/kg/injection, schedule: Q04DX002 (ip), vehicle: Klucel (hydroxypropylcellulose) (HPC) 102 % of control | dose: 400.0 mg/kg/injection, schedule: Q04DX002 (ip), vehicle: Klucel (hydroxypropylcellulose) (HPC) 94 % of control

O=C1/C(=C/c2cccc([N+](=O)[O-])c2)CCc2ccccc21
inactive: dose: 100.0 mg/kg/injection, schedule: Q04DX003 (ip), vehicle: acetone 109 % of control | dose: 200.0 mg/kg/injection, schedule: Q04DX003 (ip), vehicle: acetone 101 % of control | dose: 400.0 mg/kg/injection, schedule: Q04DX003 (ip), vehicle: acetone 96 % of control

N#CCCC(C#N)(c1ccncc1)N1CCOCC1 (centres undefined)
inactive: dose: 12.5 mg/kg/injection, schedule: Q01DX009 (ip), vehicle: saline with Tween-80 105 % of control | [8] 102 % of control | [9] 94 % of control and 91 % of control

Nc1ccc2c(c1)/C(=N/O)c1cc(Br)ccc1-2
inactive: dose: 100.0 mg/kg/injection, schedule: Q01DX001 (ip), vehicle: carboxymethylcellulose (CMC) 110 % of control | dose: 200.0 mg/kg/injection, schedule: Q01DX001 (ip), vehicle: carboxymethylcellulose (CMC) 102 % of control | dose: 400.0 mg/kg/injection, schedule: Q01DX001 (ip), vehicle: carboxymethylcellulose (CMC) 100 % of control

CCCCCCCCCCCCOc1ccc(C(=O)CC(=O)OCC)cc1
inactive: dose: 100.0 mg/kg/injection, schedule: Q01DX001 (ip), vehicle: acetone 95 % of control | dose: 200.0 mg/kg/injection, schedule: Q01DX001 (ip), vehicle: acetone 100 % of control | dose: 200.0 mg/kg/injection, schedule: Q04DX003 (ip), vehicle: saline 90 % of control | dose: 400.0 mg/kg/injection, schedule: Q01DX001 (ip), vehicle: acetone 108 % of control | dose: 400.0 mg/kg/injection, schedule: Q04DX003 (ip), vehicle: saline 89 % of control

O=[N+]([O-])c1cc([N+](=O)[O-])c2nc3ccccn3c2c1
inactive: [10] 96 % of control | [11] 102 % of control | [12] 107 % of control

OC12CCCC3CCCC(CCC1)C32 (centres undefined)
inactive: dose: 100.0 mg/kg/injection, schedule: Q01DX009 (ip), vehicle: saline sonified 108 % of control | [5] 106 % of control | dose: 200.0 mg/kg/injection, schedule: Q01DX009 (ip), vehicle: saline sonified 111 % of control | [6] 96 % of control | dose: 400.0 mg/kg/injection, schedule: Q01DX009 (ip), vehicle: saline sonified 92 % of control | [7] 104 % of control

Cc1nc(C#N)c(C#N)nc1-c1ccccc1
inactive: [13] 95 % of control | [14] 95 % of control | [15] 95 % of control

O=C1CCCCc2ccc([N+](=O)[O-])cc21
inactive: dose: 50.0 mg/kg/injection, schedule: Q01DX001 (ip), vehicle: other 86 % of control | dose: 100.0 mg/kg/injection, schedule: Q01DX001 (ip), vehicle: other 98 % of control | dose: 200.0 mg/kg/injection, schedule: Q01DX001 (ip), vehicle: other 96 % of control | dose: 400.0 mg/kg/injection, schedule: Q01DX001 (ip), vehicle: other 88 % of control

O=C(O)/C=C(/C(=O)O)c1cccn1Cc1ccccc1
inactive: [8] 110 % of control | [9] 100 % of control | [10] 102 % of control

Cc1ccccc1NC(=O)Oc1ccc2c(C)cc(=O)oc2c1
inactive: dose: 100.0 mg/kg/injection, schedule: Q01DX009 (ip), vehicle: Klucel (hydroxypropylcellulose) (HPC) 103 % of control | dose: 200.0 mg/kg/injection, schedule: Q01DX009 (ip), vehicle: Klucel (hydroxypropylcellulose) (HPC) 100 % of control

O=C(NC(Cc1ccccc1)C(=O)NCCCCCCCCCCNC(=O)C(Cc1ccccc1)NC(=O)OCc1ccccc1)OCc1ccccc1 (centres undefined)
inactive: [1] 92 % of control | [2] 98 % of control | [3] 110 % of control | [4] 104 % of control

CCc1ccc(C(=O)C2CC2)cc1
inactive: [10] 102 % of control | dose: 100.0 mg/kg/injection, schedule: Q04DX003 (ip), vehicle: saline with Tween-80 93 % of control | [11] 104 % of control | dose: 200.0 mg/kg/injection, schedule: Q04DX003 (ip), vehicle: saline with Tween-80 96 % of control | [12] 110 % of control | dose: 400.0 mg/kg/injection, schedule: Q04DX003 (ip), vehicle: saline with Tween-80 96 % of control

CCCCCCCCCCC[CH2][Hg][Cl]
inactive: dose: 6.25 mg/kg/injection, schedule: Q04DX003 (ip), vehicle: Klucel (hydroxypropylcellulose) (HPC) 93 % of control

CNNC(=O)c1cccnc1
inactive: dose: 25.0 mg/kg/injection, schedule: Q01DX001 (ip), vehicle: saline 95 % of control | dose: 25.0 mg/kg/injection, schedule: Q01DX009 (ip), vehicle: saline 95 % of control and 98 % of control | [16] 105 % of control | [1] 100 % of control | dose: 50.0 mg/kg/injection, schedule: Q01DX009 (ip), vehicle: saline 95 % of control and 100 % of control | dose: 50.0 mg/kg/injection, schedule: Q04DX003 (ip), vehicle: saline 104 % of control | [2] 102 % of control | dose: 100.0 mg/kg/injection, schedule: Q01DX009 (ip), vehicle: saline 95 % of control and 98 % of control | dose: 100.0 mg/kg/injection, schedule: Q04DX003 (ip), vehicle: saline 98 % of control

CCC[CH2][Sn]1([CH2]CCC)[O]C(=O)C2C(C=C(C)C)C=C(C)C(C)C2C(=O)[O]1 (centres undefined)
inactive: dose: 5.0 mg/kg/injection, schedule: Q01DX001 (ip), vehicle: saline 93 % of control | [17] 104 % of control | [18] 104 % of control | dose: 40.0 mg/kg/injection, schedule: Q01DX001 (ip), vehicle: saline 96 % of control | dose: 80.0 mg/kg/injection, schedule: Q01DX001 (ip), vehicle: saline 102 % of control | [2] 117 % of control

CN=C(N)c1ccc(C(=O)OCCOC)cc1
inactive: [2] 96 % of control | [3] 107 % of control | [4] 105 % of control

CCOc1nc(N)nc(N)c1-c1ccccc1
inactive: [13] 111 % of control | [14] 96 % of control | [15] 100 % of control

Cc1ccc(S(=O)(=O)NNS(=O)(=O)c2ccc(C)cc2)cc1
inactive: dose: 100.0 mg/kg/injection, schedule: Q01DX001 (ip), vehicle: Klucel (hydroxypropylcellulose) (HPC) 109 % of control | dose: 200.0 mg/kg/injection, schedule: Q01DX001 (ip), vehicle: Klucel (hydroxypropylcellulose) (HPC) 109 % of control

BrP(Nc1cccc(NP(Br)(c2ccccc2)(c2ccccc2)c2ccccc2)c1)(c1ccccc1)(c1ccccc1)c1ccccc1
inactive: [17] 99 % of control | [18] 99 % of control

CCN(CC)CC(=O)NCC(CCCCN1CCCC1)(c1cccc2ccccc12)C(C)C (centres undefined)
inactive: dose: 6.25 mg/kg/injection, schedule: Q04DX003 (ip), vehicle: saline 104 % of control | dose: 12.5 mg/kg/injection, schedule: Q04DX003 (ip), vehicle: saline 110 % of control | [16] 93 % of control

Reference: PubChem BioAssay AID248 (DTP/NCI, 2004)
